According to US20260256794A1, “Oral Dynamine Formulations and Methods Therefor” (Ortho-Nutra, LLC, priority 2023, published 2026):

Experiments:
Format in all cases: in vivo, human
subjects [1] = assay: VAS-Ability to concentrate; design: VAS-Ability to concentrate rating, Mean / VAS-Ability to concentrate changes from baseline, Mean Difference ± SE / VAS-Ability to concentrate area under the curve, Mean Difference ± SE / VAS-Ability to concentrate area under the curve, Mean: scale not given here
Method: (§1) The inventors have discovered various compositions and methods of improving various indices of neurological and neuroenergetic functions by administering 100 mg (once daily) dosages of DYNAMINE™ (dosage between 1.0 and 1.4 mg/kg) as described in the following:
(§2) All neuroenergetic tests as listed below were performed and data were collected after 0 and 4 days of assigned supplements (with acute effects also measured at day 4 over 180 minutes):
(§3) All VAS Measurement (Energy, Sustained Energy, Mental Stamina, Ability to Focus, Ability to Concentrate, Motivation to Accomplish Difficult Tasks, Drive, Vigor, Level of Positive Outlook, Mood, Feelings of Well-Being, Tolerate Stress); Day 0: Two tests were completed. The average of both scores was computed and this value was used in all statistical analysis. Day 4 (0 minutes after ingesting dose #4): Two tests were completed. The average of both scores was computed and this value was used in all statistical analysis. Day 4 (60, 120, and 180 minutes after ingesting dose #4): One test was completed at each time point.
(§4) Neuroenergic parameters are inherently subjective, nevertheless significant in human behavior and well-being. To allow for a standardization among different subjects, the following experiments were performed using a visual analog scale using anchor statements (lowest possible/highest possible) in which subjects were asked to rate their subjective experience with respect to the specific neuroenergic parameters tested.
VAS-Ability to concentrate: In this subjective test, subjects were asked to rate their personal level of energy on a VAS scale using the prompt of “My ability to concentrate right now is . . . ” (with rating lowest possible to highest possible)”. Results were collected as noted above and Table 16 provides exemplary results for Day 0 versus Day 4 ratings, whereas Table 17 provides exemplary acute results measured at Day 4 over a duration of 180 minutes.

subjects [2] = assay: VAS-Mental Stamina; design: VAS-Mental Stamina rating, Mean / VAS-Mental Stamina changes from baseline, Mean Difference ± SE / VAS-Mental Stamina area under the curve, Mean Difference ± SE / VAS-Mental Stamina area under the curve, Mean: scale not given here
Method: as §1, §2, §3, §4
VAS-Mental Stamina: In this subjective test, subjects were asked to rate their personal level of energy on a VAS scale using the prompt of “My level of mental stamina right now is . . . ” (with rating lowest possible to highest possible)”. Results were collected as noted above and Table 10 provides exemplary results for Day 0 versus Day 4 ratings, whereas Table 11 provides exemplary acute results measured at Day 4 over a duration of 180 minutes.

subjects [3] = assay: VAS-Energy; design: VAS-Energy rating, Mean / VAS-Energy changes from baseline, Mean Difference ± SE / VAS-Energy Δ, Mean Difference ± SE / VAS-Energy area under the curve, Mean Difference ± SE / VAS-Energy area under the curve, Mean: scale not given here; details: for VAS-Energy Δ, effect size d / VAS-Energy Δ from 0 min, Mean / VAS-Energy Δ, Mean Difference ± SE: females; for VAS-Energy Δ, effect size d: vs placebo; for VAS-Energy Δ, Mean Difference ± SE: B vs A (placebo)
Method: as §1, §2, §3, §4
VAS-Energy: In this subjective test, subjects were asked to rate their personal level of energy on a VAS scale using the prompt of “My level of energy right now is . . . ” (with rating lowest possible to highest possible)”. Results were collected as noted above and Table 2 provides exemplary results for Day 0 versus Day 4 ratings, whereas Table 3 provides exemplary acute results measured at Day 4 over a duration of 180 minutes.

subjects [4] = assay: VAS-Mood; design: VAS-Mood rating, Mean / VAS-Mood changes from baseline, Mean Difference ± SE / VAS-Mood area under the curve, Mean Difference ± SE / VAS-Mood area under the curve, Mean: scale not given here
Method: as §1, §2, §3, §4
VAS-Mood: In this subjective test, subjects were asked to rate their personal level of energy on a VAS scale using the prompt of “My mood right now is . . . ” (with rating lowest possible to highest possible)”. Results were collected as noted above and Table 31 provides exemplary results for Day 0 versus Day 4 ratings, whereas Table 32 provides exemplary acute results measured at Day 4 over a duration of 180 minutes.

[5] = 100 mg once daily, Day 4, 0-180 min
[6] = 100 mg once daily, Day 4, 0-180 min, vs Group A (placebo)
[7] = 100 mg once daily, Day 4, 0 min after dose #4
[8] = 100 mg once daily, Day 4, 60 min-0 min, vs Group A (placebo)
[9] = 100 mg once daily, Day 4, 60 min after dose #4
[10] = 100 mg once daily, Day 4, 120 min-0 min, vs Group A (placebo)
[11] = 100 mg once daily, Day 4, 120 min after dose #4
[12] = 100 mg once daily, Day 4, 180 min-0 min, vs Group A (placebo)
[13] = 100 mg once daily, Day 4, 180 min after dose #4
[14] = 100 mg once daily, Day 4, Δ @ 60 min
[15] = 100 mg once daily, Day 4, Δ @ 120 min
[16] = 100 mg once daily, Day 4, Δ @ 180 min

COc1nc2c(c(=O)n1C)n(C)c(=O)n2C [methylliberine, 2-methoxy-1,7,9-trimethylpurine-6,8-dione]
VAS-Ability to concentrate area under the curve, Mean (subjects [1]; [5]): 1162 | VAS-Ability to concentrate area under the curve, Mean Difference ± SE (subjects [1]; [6]): 48.1 ± 38.7 | VAS-Ability to concentrate area under the curve, effect size d (subjects [1]; [6]): 0.16 | VAS-Ability to concentrate rating, Mean (subjects [1]; [7]): 5.9 | VAS-Ability to concentrate changes from baseline, Mean Difference ± SE (subjects [1]; [8]): 0.26 ± 0.26 | VAS-Ability to concentrate changes from baseline, effect size d (subjects [1]; [8]): 0.28 | VAS-Ability to concentrate rating, Mean (subjects [1]; [9]): 6.5 | VAS-Ability to concentrate changes from baseline, Mean Difference ± SE (subjects [1]; [10]): 0.15 ± 0.27 | VAS-Ability to concentrate changes from baseline, effect size d (subjects [1]; [10]): 0.14 | VAS-Ability to concentrate rating, Mean (subjects [1]; [11]): 6.5 | VAS-Ability to concentrate changes from baseline, Mean Difference ± SE (subjects [1]; [12]): 0.70 ± 0.23 | VAS-Ability to concentrate changes from baseline, effect size d (subjects [1]; [12]): 0.68 | VAS-Ability to concentrate rating, Mean (subjects [1]; [13]): 6.8 | VAS-Ability to concentrate rating, Mean (subjects [1]; Day 0 (before supplementation)): 5.9 | VAS-Mental Stamina area under the curve, Mean (subjects [2]; [5]): 1133 | VAS-Mental Stamina area under the curve, Mean Difference ± SE (subjects [2]; [6]): 59.2 ± 46.2 | VAS-Mental Stamina area under the curve, effect size d (subjects [2]; [6]): 0.18 | VAS-Mental Stamina rating, Mean (subjects [2]; [7]): 6.0 | VAS-Mental Stamina changes from baseline, Mean Difference ± SE (subjects [2]; [8]): −0.12 ± 0.22 | VAS-Mental Stamina changes from baseline, effect size d (subjects [2]; [8]): −0.15 | VAS-Mental Stamina rating, Mean (subjects [2]; [9]): 6.3 | VAS-Mental Stamina changes from baseline, Mean Difference ± SE (subjects [2]; [10]): −0.21 ± 0.28 | VAS-Mental Stamina changes from baseline, effect size d (subjects [2]; [10]): −0.21 | VAS-Mental Stamina rating, Mean (subjects [2]; [11]): 6.3 | VAS-Mental Stamina changes from baseline, Mean Difference ± SE (subjects [2]; [12]): 0.16 ± 0.24 | VAS-Mental Stamina changes from baseline, effect size d (subjects [2]; [12]): 0.15 | VAS-Mental Stamina rating, Mean (subjects [2]; [13]): 6.6 | VAS-Mental Stamina rating, Mean (subjects [2]; Day 0 (before supplementation)): 5.7 | VAS-Energy area under the curve, Mean (subjects [3]; [5]): 1115 | VAS-Energy area under the curve, Mean Difference ± SE (subjects [3]; [6]): 49.6 ± 36.3 | VAS-Energy area under the curve, effect size d (subjects [3]; [6]): 0.15 | VAS-Energy rating, Mean (subjects [3]; [7]): 5.8 | VAS-Energy changes from baseline, Mean Difference ± SE (subjects [3]; [8]): 0.24 ± 0.22 | VAS-Energy changes from baseline, effect size d (subjects [3]; [8]): 0.28 | VAS-Energy rating, Mean (subjects [3]; [9]): 6.2 | VAS-Energy changes from baseline, Mean Difference ± SE (subjects [3]; [10]): −0.14 ± 0.27 | VAS-Energy changes from baseline, effect size d (subjects [3]; [10]): −0.14 | VAS-Energy rating, Mean (subjects [3]; [11]): 6.2 | VAS-Energy changes from baseline, Mean Difference ± SE (subjects [3]; [12]): 0.28 ± 1.24 | VAS-Energy changes from baseline, effect size d (subjects [3]; [12]): 0.28 | VAS-Energy rating, Mean (subjects [3]; [13]): 6.5 | VAS-Energy rating, Mean (subjects [3]; Day 0 (before supplementation)): 5.5 | VAS-Energy Δ, effect size d (subjects [3]; 100 mg once daily, Day 4, 60 min): 0.81 | VAS-Energy Δ, effect size d (subjects [3]; 100 mg once daily, Day 4, 120 min): 0.69 | VAS-Energy Δ, effect size d (subjects [3]; 100 mg once daily, Day 4, 120 min, listed as B): −0.03 | VAS-Energy Δ, effect size d (subjects [3]; 100 mg once daily, Day 4, 180 min): 0.69 | VAS-Energy Δ from 0 min, Mean (subjects [3]; [14]): 0.66 | VAS-Energy Δ, Mean Difference ± SE (subjects [3]; [14]): 0.72 ± 0.23 | VAS-Energy Δ from 0 min, Mean (subjects [3]; [15]): 0.42 | VAS-Energy Δ, Mean Difference ± SE (subjects [3]; [15]): −0.03 ± 0.38 | VAS-Energy Δ from 0 min, Mean (subjects [3]; [16]): 1.08 | VAS-Energy Δ, Mean Difference ± SE (subjects [3]; [16]): 0.73 ± 1.11 | VAS-Mood area under the curve, Mean (subjects [4]; [5]): 1220 | VAS-Mood area under the curve, Mean Difference ± SE (subjects [4]; [6]): 37.4 ± 250.7 | VAS-Mood area under the curve, effect size d (subjects [4]; [6]): 0.12 | VAS-Mood rating, Mean (subjects [4]; [7]): 6.1 | VAS-Mood changes from baseline, Mean Difference ± SE (subjects [4]; [8]): 0.38 ± 0.18 | VAS-Mood changes from baseline, effect size d (subjects [4]; [8]): 0.43 | VAS-Mood rating, Mean (subjects [4]; [9]): 6.7 | VAS-Mood changes from baseline, Mean Difference ± SE (subjects [4]; [10]): 0.45 ± 0.27 | VAS-Mood changes from baseline, effect size d (subjects [4]; [10]): 0.41 | VAS-Mood rating, Mean (subjects [4]; [11]): 7.0 | VAS-Mood changes from baseline, Mean Difference ± SE (subjects [4]; [12]): 0.72 ± 0.30 | VAS-Mood changes from baseline, effect size d (subjects [4]; [12]): 0.65 | VAS-Mood rating, Mean (subjects [4]; [13]): 7.1 | VAS-Mood rating, Mean (subjects [4]; Day 0 (before supplementation)): 6.5
